Experimental data: US20110212196A1, “THERAPEUTIC OIL COMPOSITION CONTAINING CARVONE” (MAINE CONSERVATION MEDICINE CENTER, priority 2010, published 2011)

Columns and labels:
[1] = tested on: fish; conditions: in vivo; cited from earlier work
[2] = tested on: elasmobranch fishes; experiment: anesthesia of elasmobranch fishes by immersion; format: in vivo, spiny dogfish Squalus acanthias; conditions: 400-600 mg/L carvone alone, oil-in-water emulsion
Text: 3. […] For examples spiny dogfish Squalus acanthias can be anesthetized by immersion.

Row | SMILES | safety during anesthesia/euthanasia [1] | anesthesia [2]
1 | O=C=O [carbon dioxide] | Some fish died during anesthesia | 
2 | C=C(C)C1CC=C(C)C(=O)C1 (centres unmarked) [carvone] |  | will anesthetize
